According to patent US9365522B2, “Pyrazole amide derivative” (AMGEN INC., priority 2015, dated 2016):

molecular target: T1, ligand binding domain of human ROR gamma (Homo sapiens, UniProt P51449); assay: ROR gamma reporter gene assay (GAL4-RORγ LBD luciferase, Dual-Glo); assay type: cell-based; conditions: HEK293T cells transfected with pM-ROR gamma, 8 concentrations 3.5 nM to 10.5 μM, 24 h incubation; read-out: result (pIC50, inhibition of RORγ transcriptional activity) (converted)
T1 construct: NM_001001523; expressed in transfected cells; host or cells: HEK293T
T1 sequence (P51449 247-497 isoform P51449-2): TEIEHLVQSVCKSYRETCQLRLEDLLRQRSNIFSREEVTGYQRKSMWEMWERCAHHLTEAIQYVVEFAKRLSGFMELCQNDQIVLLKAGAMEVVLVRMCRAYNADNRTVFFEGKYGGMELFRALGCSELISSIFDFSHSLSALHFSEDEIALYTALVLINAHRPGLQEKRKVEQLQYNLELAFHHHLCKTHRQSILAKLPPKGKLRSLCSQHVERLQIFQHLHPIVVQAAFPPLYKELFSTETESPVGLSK
Protocol: Luciferase reporter gene assay was used to assess inhibition of RORγ transcriptional activity.
ROR gamma expression vector was prepared by inserting the ligand binding domain of human ROR gamma (amino acid 247-497 of Genbank Accession NO. NM_001001523) adjacent to the yeast GAL4 transcription factor DNA binding domain in the expression vector pM (Clontech). The resulting expression vector pM-ROR gamma was used in transfection experiments together with the pGL4 luciferase reporter plasmid (Promega) containing five copies of the UAS GAL4 recognition site and pRL-CMV plasmids (Promega) containing the constitutive CMV promoter and the renilla luciferase.
For preparing transfection reagent/DNA mixture, 1 μg pM-ROR gamma, 1 μg pGL4 5×UAS, 625 pg pRL-CMV and 6.25 μL FuGENE™ HD transfection reagent (Promega) were mixed in 0.25 mL OPTI-MEM™ (Life technologies) at room temperature. At the same time, Negative control DNA mixture was prepared by using 1 μg pM empty vector instead of pM-ROR gamma plasmid. After a fifteen minute incubation, 0.25 mL of transfection reagent/DNA mixture was added to 1,000,000 of HEK293T cells (ATCC) in 5 mL of OPTI-MEM™ containing 10% Charcoal Stripped Fetal Bovine Serum.
Transfected cells were seeded onto 384 well plate (10 μL/well) and the 7.5 nL of test compounds were added to the wells in 8 concentrations ranging from 3.5 nM to 10.5 μM. The compounds were dissolved in 100% DMSO and the final concentration of DMSO in the assay was 0.075%.
After 24 h of incubation at 37° C., 5% CO2 in a cell culture incubator, the Dual-Glo™ Luciferase Assay System was used to detect activity according to the manufacturer's instructions (Promega, Cat. No.: E2920).
Data was plotted and pIC50 values were calculated using the XLfit program (ID Business Solutions Ltd.).

SMILES	IC50
COc1cncc(Cl)c1C(=O)CN(Cc1ccc(F)cc1)C(=O)c1cnn([C@H]2CC[C@H](C(=O)O)CC2)c1C(F)(F)F [Example 188, trans-4-(4-((2-(3-chloro-5-methoxypyridin-4-yl)-2-oxoethyl)-((4-fluorophenyl)methyl)carbamoyl)-5-(trifluoromethyl)pyrazol-1-yl)cyclohexane-1-carboxylic acid]	275000 pM
O=C(CN(Cc1cnccn1)C(=O)c1cnn([C@H]2CC[C@H](C(=O)O)CC2)c1C(F)(F)F)c1c(Cl)cncc1Cl [Example 48, trans-4-(4-((2-(3,5-dichloropyridin-4-yl)-2-oxoethyl)(pyrazin-2-ylmethyl)carbarnoyl)-5-(trifluoromethyl)-1H-pyrazol-1-yl)cyclohexanecarboxylic acid]	> 1e+07 pM
O=C(CN(Cc1cc(F)cc(F)c1)C(=O)c1cnn([C@H]2CC[C@H](C(=O)O)CC2)c1C(F)(F)F)c1c(Cl)cc(C2CC2)cc1Cl [Example 66, trans-4-(4-((2-(2,6-dichloro-4-cyclopropylphenyl)-oxoethyl)(3,5-difluorobenzyl)carbamoyl)-5-(trifluoromethyl)-1H-pyrazol-1-yl)cyclohexanecarboxylic acid]	83200 pM
Cc1noc(C)c1C(=O)CN(Cc1cc(F)cc(F)c1)C(=O)c1cnn([C@H]2CC[C@H](C(=O)O)CC2)c1C(F)(F)F [Example 64, trans-4-(4-((3,5-difluorobenzyl)(2-(3,5-dimethylisoxazol-4-yl)-2-oxoethyl)carbamoyl)-5-(trifluoromethyl)-1H-pyrazol-1-yl)cyclohexanecarboxylic acid]	> 1e+07 pM
N#Cc1ccc(CN(CC(=O)c2c(Cl)cncc2Cl)C(=O)c2cnn([C@H]3CC[C@H](C(=O)O)CC3)c2C(F)(F)F)cc1 [Example 171, trans-4-(4-((4-cyanophenyl)methyl-(2-(3,5-dichloropyridin-4-yl)-2-oxoethyl)carbamoyl)-5-(trifluoromethyl)pyrazol-1-yl)cyclohexane-1-carboxylic acid]	166000 pM
CC(C1CC2(CC2)C1)N(CC(=O)c1c(Cl)cncc1Cl)C(=O)c1cnn([C@H]2CC[C@H](C(=O)O)CC2)c1C(F)(F)F (stereo partly drawn) [Example 204, trans-4-(4-((2-(3,5-dichloropyridin-4-yl)-2-oxoethyl)-(1-spiro[2.3]hexan-5-ylethyl)carbamoyl)-5-(trifluoromethyl)pyrazol-1-yl)cyclohexane-1-carboxylic acid]	60300 pM
COc1cccc(OC)c1C(=O)CN(Cc1cc(F)cc(F)c1)C(=O)c1cnn([C@H]2CC[C@H](C(=O)O)CC2)c1C(F)(F)F [Example 111, trans-4-(4-((3,5-difluorophenyl)methyl-(2-(2,6-dimethoxyphenyl)-2-oxoethyl)carbamoyl)-5-(trifluoromethyl)pyrazol-1-yl)cyclohexane-1-carboxylic acid]	355000 pM
Cc1cc(Cl)c(C(=O)CN(CC2(F)CCCC2)C(=O)c2cnn([C@H]3CC[C@](C)(C(=O)O)CC3)c2C(F)(F)F)c(Cl)c1 [Example 282, trans-4-(4-((2-(2,6-dichloro-4-methylphenyl)-2-oxoethyl)-((1-fluorocyclopentyl)methyl)carbamoyl)-5-(trifluoromethyl)pyrazol-1-yl)-1-methylcyclohexane-1-carboxylic acid]	3390 pM
O=C(CN(Cc1cccnc1)C(=O)c1cnn([C@H]2CC[C@H](C(=O)O)CC2)c1C(F)(F)F)c1c(Cl)cncc1Cl [Example 104, trans-4-(4-((2-(3,5-dichloropyridin-4-yl)-2-oxoethyl)-(pyridin-3-ylmethyl)carbamoyl)-5-(trifluorornethyl)pyrazol-1-yl)cyclohexane-1-carboxylic acid]	2.04e+06 pM
C[C@]1(C(=O)O)CC[C@H](n2ncc(C(=O)N(CC(=O)c3c(Cl)cncc3Cl)CC3(F)CCCC3)c2C(F)(F)F)CC1 [Example 272, trans-4-(4-((2-(3,5-dichloropyridin-4-yl)-2-oxoethyl)-((1-fluorocyclopentyl)methyl)carbamoyl)-5-(trifluoromethyl)pyrazol-1-yl)-1-methylcyclohexane-1-carboxylic acid]	11200 pM
CCC(F)(CC)CN(CC(=O)c1c(Cl)cncc1Cl)C(=O)c1cnn([C@H]2CC[C@](C)(C(=O)O)CC2)c1Cl [Example 395, trans-4-(5-chloro-4-((2-(3,5-dichloropyridin-4-yl)-2-oxoethyl)-(2-ethyl-2-fluorobutyl)carbamoyl)pyrazol-1-yl)-1-methylcyclohexane-1-carboxylic acid]	91200 pM

More lines, now with the values ahead:

IC50	SMILES
33900 pM	C[C@]1(C(=O)O)CC[C@H](n2ncc(C(=O)N(CC(=O)c3c(Cl)cncc3Cl)Cc3ccc(F)cc3)c2C(F)(F)F)CC1 [Example 77, trans-4-(4-((2-(3,5-dichloropyridin-4-yl)-2-oxoethyl)(4-fluorobenzyl)carbamoyl)-5-(trifluoromethyl)-1H-pyrazol-1-yl)-1-methylcylohexanecarboxylic acid]
1.23e+06 pM	CC1(C)[C@@H]2C[C@H](N(C[C@@H](O)c3ccccc3Cl)C(=O)c3cnn([C@H]4CC[C@](C)(C(=O)O)CC4)c3C(F)(F)F)C[C@@H]21 [Example 369, trans-4-(4-((2-(2-chlorophenyl)-2-hydroxyethyl)((1R,3r,5S)-6,6-dimethylbicyclo[3.1.0]hexan-3-yl)carbamoyl)-5-(trifluoromethyl)-1H-pyrazol-yl)-1-methylcyclohexanecarboxylic acid]
1.17e+06 pM	Cc1c(C(=O)N(CC(=O)c2c(Cl)cncc2Cl)Cc2cc(F)cc(F)c2)cnn1[C@H]1CC[C@H](C(=O)O)CC1 [Example 164, trans-4-(4-((2-(3,5-dichloropyridin-4-yl)-2-oxoethyl)-((3,5-difluorophenyl)methyl)carbamoyl)-5-methylpyrazol-1-yl)cyclohexane-1-carboxylic acid]
105000 pM	CC1(C)CCC(CN(CC(=O)c2c(Cl)cc(F)cc2Cl)C(=O)c2cnn([C@H]3CC[C@](C)(C(=O)O)CC3)c2C(F)(F)F)CC1 [Example 220, trans-4-(4-((2-(2,6-dichloro-4-fluorophenyl)-2-oxoethyl)-((4,4-dimethylcyclohexyl)methyl)carbamoyl)-5-(trifluoromethyl)pyrazol-1-yl)-1-methylcyclohexane-1-carboxylic acid]
912000 pM	CC(C)(C)CC1CC(N(CC(=O)c2c(Cl)cc(F)cc2Cl)C(=O)c2cnn([C@H]3CC[C@](C)(C(=O)O)CC3)c2C(F)(F)F)C1 (stereo partly drawn) [Example 203, trans-4-(4-((2-(2,6-dichloro-4-fluorophenyl)-2-oxoethyl)-(3-(2,2-dimethylpropyl)cyclobutyl)carbamoyl)-5-(trifluoromethyl)pyrazol-1-yl)-1-methylcyclohexane-1-carboxylic acid]
> 1e+07 pM	O=C(CN(Cc1cc(F)cc(F)c1)C(=O)c1cnn(C2CCC(C(=O)O)CC2)c1C(F)(F)F)c1c(O)cccc1O (centres unmarked) [Example 9, 4-(4-((3,5-difluorobenzyl)(2-(2,6-dihydroxyphenyl)-2-oxoethyl)carbamoyl)-5-(trifluoromethyl)-1H-pyrazol-1-yl)cyclohexanecarboxylic acid]
31600 pM	CC1(C)CCC(N(CC(=O)c2c(Cl)cccc2C(F)(F)F)C(=O)c2cnn(C34CCC(C(=O)O)(CC3)CC4)c2C(F)(F)F)CC1 [Example 242, 4-(4-((2-(2-chloro-6-(trifluoromethyl)phenyl)-2-oxoethyl)-(4,4-dimethylcyclohexyl)carbamoyl)-5-(trifluoromethyl)pyrazol-1-yl)bicyclo[2.2.2]octane-1-carboxylic acid]
871000 pM	CC(C)c1c(C(=O)N(CC(=O)c2c(Cl)cc(F)cc2Cl)C2CCC(C)(C)CC2)cnn1[C@H]1CC[C@](C)(C(=O)O)CC1 [Example 347, trans-4-(4-((2-(2,6-dichloro-4-fluorophenyl)-2-oxoethyl)-(4,4-dimethylcyclohexyl)carbamoyl)-5-propan-2-ylpyrazol-1-yl)-1-methylcyclohexane-1-carboxylic acid]
646000 pM	CC(C)(F)CN(CC(=O)c1c(Cl)cncc1Cl)C(=O)c1cnn([C@H]2CC[C@H](C(=O)O)CC2)c1C(F)(F)F [Example 73, trans-4-(4-((2-(3,5-dichloropyridin-4-yl)-2-oxoethyl)(2-fluoro-2-methylpropyl)carbamoyl)-5-(trifluoromethyl)-1H-pyrazol-1-yl)cyclohexanecarboxylic acid]
